Measurements from PMC6070925, “Genome Mining of Non-Conventional Yeasts: Search and Analysis of MAL Clusters and Proteins” (Genes, 2018).

How the values were obtained:
Assay in all cases: glucose release, recombinant E. coli extract
Type in all cases: biochemical
Details in all cases: 100 mM substrate, K-phosphate pH 6.5, 0.1 mM EDTA, 30 °C
MAL62 (Sc MAL62) [1] = target: T1, MAL62 (Sc MAL62) (Saccharomyces cerevisiae, UniProt P07265)
T1 construct: gene from plasmid pY6 cloned into pURI3-Cter, expressed in E. coli BL21 (DE3), crude cell extract
T1 sequence (P07265 whole entry): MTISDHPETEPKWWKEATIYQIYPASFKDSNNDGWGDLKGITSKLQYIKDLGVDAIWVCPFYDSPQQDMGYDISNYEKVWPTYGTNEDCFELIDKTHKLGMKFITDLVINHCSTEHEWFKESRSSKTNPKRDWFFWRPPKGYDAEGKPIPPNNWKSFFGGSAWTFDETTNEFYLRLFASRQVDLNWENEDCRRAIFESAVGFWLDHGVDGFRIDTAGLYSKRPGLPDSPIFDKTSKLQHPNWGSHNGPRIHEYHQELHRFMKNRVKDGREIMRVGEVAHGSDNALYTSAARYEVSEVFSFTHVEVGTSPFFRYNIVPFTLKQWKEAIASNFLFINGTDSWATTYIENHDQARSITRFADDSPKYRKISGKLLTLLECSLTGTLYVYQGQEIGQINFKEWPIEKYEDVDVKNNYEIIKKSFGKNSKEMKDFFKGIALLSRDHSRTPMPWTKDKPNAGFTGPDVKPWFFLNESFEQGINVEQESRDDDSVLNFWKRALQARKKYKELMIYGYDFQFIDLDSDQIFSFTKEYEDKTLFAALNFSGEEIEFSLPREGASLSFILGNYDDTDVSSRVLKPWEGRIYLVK

MAL9 (Ss MAL9) = target: T2, MAL9 (Ss MAL9) (Scheffersomyces stipitis, UniProt A3GIC0)
T2 construct: gene PCR-cloned from genomic DNA into pURI3-Cter, expressed in E. coli BL21 (DE3), crude cell extract
T2 sequence (A3GIC0 1-573): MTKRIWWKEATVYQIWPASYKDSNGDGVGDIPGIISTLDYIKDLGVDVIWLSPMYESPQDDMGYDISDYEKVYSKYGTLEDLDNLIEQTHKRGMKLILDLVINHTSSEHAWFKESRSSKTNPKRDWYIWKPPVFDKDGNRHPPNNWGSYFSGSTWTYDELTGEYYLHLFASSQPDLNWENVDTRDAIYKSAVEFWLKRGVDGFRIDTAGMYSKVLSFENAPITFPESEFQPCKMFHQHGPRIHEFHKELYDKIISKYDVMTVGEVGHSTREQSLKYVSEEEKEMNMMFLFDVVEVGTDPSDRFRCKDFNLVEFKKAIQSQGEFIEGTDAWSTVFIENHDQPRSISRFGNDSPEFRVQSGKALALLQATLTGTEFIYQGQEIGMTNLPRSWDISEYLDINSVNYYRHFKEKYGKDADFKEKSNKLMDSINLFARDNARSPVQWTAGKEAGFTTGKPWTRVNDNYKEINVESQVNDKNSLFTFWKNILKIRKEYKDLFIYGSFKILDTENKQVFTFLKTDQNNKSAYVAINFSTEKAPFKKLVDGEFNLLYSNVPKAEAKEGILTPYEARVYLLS

MAL62 (Sc MAL62) [2] = target: T1, MAL62 (Sc MAL62); remark: listed apart in the source
MAL8 (Ss MAL8) = target: T3, MAL8 (Ss MAL8) (Scheffersomyces stipitis, UniProt A3LXA2)
T3 construct: gene PCR-cloned from genomic DNA into pURI3-Cter, expressed in E. coli BL21 (DE3), crude cell extract
T3 sequence (A3LXA2 1-572): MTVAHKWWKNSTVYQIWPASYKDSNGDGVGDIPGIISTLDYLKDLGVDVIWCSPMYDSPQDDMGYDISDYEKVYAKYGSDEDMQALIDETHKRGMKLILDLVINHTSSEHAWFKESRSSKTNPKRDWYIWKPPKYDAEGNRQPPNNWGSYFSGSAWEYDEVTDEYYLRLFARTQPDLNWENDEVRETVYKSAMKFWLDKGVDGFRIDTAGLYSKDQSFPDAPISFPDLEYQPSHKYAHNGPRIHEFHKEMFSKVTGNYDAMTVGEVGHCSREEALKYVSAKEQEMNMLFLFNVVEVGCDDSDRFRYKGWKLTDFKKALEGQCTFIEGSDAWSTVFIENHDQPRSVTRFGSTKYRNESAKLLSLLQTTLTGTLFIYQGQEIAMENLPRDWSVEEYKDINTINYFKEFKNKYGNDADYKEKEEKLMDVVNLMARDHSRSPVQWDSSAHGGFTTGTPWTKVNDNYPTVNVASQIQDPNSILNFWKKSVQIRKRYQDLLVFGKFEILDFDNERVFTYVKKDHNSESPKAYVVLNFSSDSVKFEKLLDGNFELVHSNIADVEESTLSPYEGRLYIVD

MAL7 (Ss MAL7) = target: T4, MAL7 (Ss MAL7) (Scheffersomyces stipitis, UniProt A3LUP5)
T4 construct: gene PCR-cloned from genomic DNA into pURI3-Cter, expressed in E. coli BL21 (DE3), crude cell extract
T4 sequence (A3LUP5 1-572): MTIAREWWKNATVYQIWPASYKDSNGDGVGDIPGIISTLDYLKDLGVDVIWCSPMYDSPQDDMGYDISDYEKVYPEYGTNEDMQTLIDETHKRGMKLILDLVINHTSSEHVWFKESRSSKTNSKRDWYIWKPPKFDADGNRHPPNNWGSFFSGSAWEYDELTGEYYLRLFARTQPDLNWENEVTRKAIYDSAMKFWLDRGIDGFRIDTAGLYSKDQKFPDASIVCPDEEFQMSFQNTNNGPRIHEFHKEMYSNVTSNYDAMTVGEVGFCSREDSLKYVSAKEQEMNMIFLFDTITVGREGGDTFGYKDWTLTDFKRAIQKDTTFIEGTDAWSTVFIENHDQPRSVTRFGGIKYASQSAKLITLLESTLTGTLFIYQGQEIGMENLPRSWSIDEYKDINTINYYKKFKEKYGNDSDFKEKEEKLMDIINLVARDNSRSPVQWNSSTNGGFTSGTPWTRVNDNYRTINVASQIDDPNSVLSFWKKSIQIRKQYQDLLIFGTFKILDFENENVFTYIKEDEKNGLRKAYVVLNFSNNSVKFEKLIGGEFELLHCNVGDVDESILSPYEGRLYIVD

| SMILES | specific activity (MAL62 (Sc MAL62) [1]) | specific activity relative to sucrose (MAL9 (Ss MAL9)) | specific activity relative to sucrose (MAL62 (Sc MAL62) [2]) | specific activity relative to sucrose (MAL8 (Ss MAL8)) | specific activity relative to sucrose (MAL7 (Ss MAL7)) |
| --- | --- | --- | --- | --- | --- |
| OC[C@H]1O[C@@](CO)(O[C@H]2O[C@H](CO)[C@@H](O)[C@H](O)[C@H]2O)[C@@H](O)[C@@H]1O [sucrose] | behaved as a typical maltase using only maltose-like substrates | – | – | – | – |
| OC[C@H]1O[C@H](O[C@H]2[C@H](O)[C@@H](O)C(O)O[C@@H]2CO)[C@H](O)[C@@H](O)[C@@H]1O (some centres unmarked) [maltose] | – | all these enzymes hydrolyzed not only maltose-like substrates (maltose, sucrose) | behaved as a typical maltase using only maltose-like substrates | all these enzymes hydrolyzed not only maltose-like substrates (maltose, sucrose) | all these enzymes hydrolyzed not only maltose-like substrates (maltose, sucrose) |
